Experiments:
[1] = target: GABA-A receptor; anion channel; test: Inhibition of [3H]flunitrazepam binding to GABA-A central Benzodiazepine receptor of bovine brain membranes; assay type: cell membranes, Bos taurus
[2] = target: GABA-A receptor; anion channel (Bos taurus) (UniProt P10063+P08220+P20237+P08219+P10064+P22300); test: Inhibition of specific [3H]flunitrazepam binding to benzodiazepine receptor at 250 uM; assay type: protein-complex assay

Structure (SMILES) | IC50 [1] [µM] | inhibition [2] [%]
O=C(NC(Cc1ccc(O)cc1)C(=O)O)C(=O)c1c[nH]c2ccc([N+](=O)[O-])cc12 (stereo not drawn) | 75 | 81
CN1C(=O)CN=C(c2ccccc2)c2cc(Cl)ccc21 [DIAZEPAM] | 0.041 | –
CCOC(=O)C(Cc1ccc(O)cc1)NC(=O)C(=O)c1c[nH]c2ccc(Br)cc12 (stereo not drawn) | – | 68
COc1ccc2[nH]cc(C(=O)C(=O)NC(C(=O)O)C(C)C)c2c1 (stereo not drawn) | – | 12
CCOC(=O)C(C)NC(=O)C(=O)c1c[nH]c2ccccc12 (stereo not drawn) | – | 80
CCOC(=O)C(Cc1c[nH]c2ccccc12)NC(=O)C(=O)c1c[nH]c2ccc([N+](=O)[O-])cc12 (stereo not drawn) | – | 59
CC(C)C(NC(=O)C(=O)c1c[nH]c2ccc([N+](=O)[O-])cc12)C(=O)O (stereo not drawn) | 60 | 83
O=C1CN=C(c2ccccc2)c2cc([N+](=O)[O-])ccc2N1 [NITRAZEPAM] | 0.038 | –
CCOC(=O)C(Cc1c[nH]c2ccccc12)NC(=O)C(=O)c1c[nH]c2ccc(Br)cc12 (stereo not drawn) | 22 | 100
CC(NC(=O)C(=O)c1c[nH]c2ccc(Cl)cc12)C(=O)O (stereo not drawn) | 22 | 93
O=C(NC(Cc1c[nH]c2ccccc12)C(=O)O)C(=O)c1c[nH]c2ccc(Cl)cc12 (stereo not drawn) | – | 61
O=C(NC(Cc1c[nH]c2ccccc12)C(=O)O)C(=O)c1c[nH]c2ccccc12 (stereo not drawn) | – | 11
CCOC(=O)C(C)NC(=O)C(=O)c1c[nH]c2ccc(Br)cc12 (stereo not drawn) | 4.8 | 100
CC(C)C(NC(=O)C(=O)c1c[nH]c2ccccc12)C(=O)O (stereo not drawn) | – | 28
O=C(O)CNC(=O)C(=O)c1c[nH]c2ccc(Cl)cc12 | 38 | 82
CCOC(=O)C(C)NC(=O)C(=O)c1c[nH]c2ccc([N+](=O)[O-])cc12 (stereo not drawn) | 0.2 | 100
CCOC(=O)C(Cc1ccccc1)NC(=O)C(=O)c1c[nH]c2ccc(Br)cc12 (stereo not drawn) | – | 65
O=C(NC(Cc1ccc(O)cc1)C(=O)O)C(=O)c1c[nH]c2ccccc12 (stereo not drawn) | – | 27
CCOC(=O)C(NC(=O)C(=O)c1c[nH]c2ccc(Cl)cc12)C(C)C (stereo not drawn) | – | 62
CNC1=Nc2ccc(Cl)cc2C(c2ccccc2)=[N+]([O-])C1 [CHLORDIAZEPOXIDE] | 1.1 | –
CCOC(=O)C(Cc1c[nH]c2ccccc12)NC(=O)C(=O)c1c[nH]c2ccc(Cl)cc12 (stereo not drawn) | – | 55
CCOC(=O)CNC(=O)C(=O)c1c[nH]c2ccc(Cl)cc12 | 5.4 | 100
CCOC(=O)C(Cc1ccccc1)NC(=O)C(=O)c1c[nH]c2ccc(OC)cc12 (stereo not drawn) | – | 60

Structure (SMILES) | IC50 [1] [µM] | inhibition [2] [%]
CC(C)C(NC(=O)C(=O)c1c[nH]c2ccc(Cl)cc12)C(=O)O (stereo not drawn) | – | 68
CCOC(=O)C(NC(=O)C(=O)c1c[nH]c2ccccc12)C(C)C (stereo not drawn) | – | 77
CCOC(=O)C(C)NC(=O)C(=O)c1c[nH]c2ccc(Cl)cc12 (stereo not drawn) | 0.5 | 100
CC(NC(=O)C(=O)c1c[nH]c2ccc([N+](=O)[O-])cc12)C(=O)O (stereo not drawn) | 6.2 | 94
O=C(NC(Cc1ccccc1)C(=O)O)C(=O)c1c[nH]c2ccc(Br)cc12 (stereo not drawn) | – | 62
O=C(NC(Cc1c[nH]c2ccccc12)C(=O)O)C(=O)c1c[nH]c2ccc(Br)cc12 (stereo not drawn) | – | 66
COc1ccc2[nH]cc(C(=O)C(=O)NC(Cc3ccccc3)C(=O)O)c2c1 (stereo not drawn) | – | 38
CCOC(=O)CNC(=O)C(=O)c1c[nH]c2ccccc12 | – | 84
CCOC(=O)C(Cc1c[nH]c2ccccc12)NC(=O)C(=O)c1c[nH]c2ccccc12 (stereo not drawn) | – | 70
COC(=O)C(Cc1ccc(O)cc1)NC(=O)C(=O)c1c[nH]c2ccccc12 (stereo not drawn) | – | 50
O=C(NC(Cc1c[nH]c2cc([N+](=O)[O-])ccc12)C(=O)O)C(=O)c1c[nH]c2ccccc12 (stereo not drawn) | – | 31
CC(NC(=O)C(=O)c1c[nH]c2ccccc12)C(=O)O (stereo not drawn) | – | 72
CCOC(=O)C(NC(=O)C(=O)c1c[nH]c2ccc(Br)cc12)C(C)C (stereo not drawn) | – | 88
CCOC(=O)C(Cc1c[nH]c2cc([N+](=O)[O-])ccc12)NC(=O)C(=O)c1c[nH]c2ccccc12 (stereo not drawn) | – | 48
O=C(NC(Cc1ccc(O)cc1)C(=O)O)C(=O)c1c[nH]c2ccc(Br)cc12 (stereo not drawn) | – | 37
O=C(NC(Cc1ccc(O)cc1)C(=O)O)C(=O)c1c[nH]c2ccc(Cl)cc12 (stereo not drawn) | – | 67
CCOC(=O)C(NC(=O)C(=O)c1c[nH]c2ccc(OC)cc12)C(C)C (stereo not drawn) | – | 66
CC(C)C(NC(=O)C(=O)c1c[nH]c2ccc(Br)cc12)C(=O)O (stereo not drawn) | – | 72
COC(=O)C(Cc1ccc(O)cc1)NC(=O)C(=O)c1c[nH]c2ccc([N+](=O)[O-])cc12 (stereo not drawn) | 20 | 100
CCOC(=O)CNC(=O)C(=O)c1c[nH]c2ccc(Br)cc12 | 2 | 100
O=C(O)CNC(=O)C(=O)c1c[nH]c2ccccc12 | – | 20
CCOC(=O)C(Cc1ccc(O)cc1)NC(=O)C(=O)c1c[nH]c2ccc(Cl)cc12 (stereo not drawn) | 80 | 89
